Six compounds from patent US10829520B2, “Beta-hairpin peptidomimetics” (POLYPHOR AG, priority 2015, dated 2020) can be followed below.

What all share (assay type): cell-based
Series [1] concerns Klebsiella pneumoniae 968733.
The subject of series [2] is Escherichia coli ATCC 25922. The procedure, abridged:
(§1)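 CLSI broth microdilution in cation-adjusted Mueller-Hinton II broth with 0.002% Polysorbate 80, inoculum appr. 10^6 CFU/mL, peptides in serial two-fold dilutions. MIC (μg/mL) is the lowest concentration with no visible growth after 18-20 hours at 35° C.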

In series [3] the test system is Acinetobacter baumannii DSM 30008. The procedure, abridged: as §1
Series [4] relates to Acinetobacter baumannii 872842.
The subject of series [5] is Pseudomonas aeruginosa ATCC 27853. The procedure, abridged: as §1
The subject of series [6] is Klebsiella pneumoniae SSI #3010. An outline of the steps: as §1
Another series has as its system Escherichia coli 926415.
Series [7] deals with human red blood cells (hRBC). As to the kind of experiment: Hemolysis of human red blood cells. To be noted: 100 μg/mL. An outline of the steps: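 Hemolysis was read as supernatant absorbance at 540 nm and expressed as a percentage of Triton X-100 (2.5%) lysis. Washed human red cells (20% v/v) had been exposed to each peptide at 100 μg/mL for 1 h at 37° C.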
[8] abbreviates: clinical isolate, Mueller-Hinton II broth, P-80 0.002% present.

Like-named read-outs stand apart in the source and are kept apart here. Where a SMILES comes first, the peptide text is derived from it. Bridges are numbered along the chain shown (N, C = ends). [ ]: non-standard residue; d: D form. Tle = CC(C)(C)[C@H](N)C(=O)O; NMeC = CN[C@@H](CS)C(=O)O; dDab = NCC[C@@H](N)C(=O)O; Nle = CCCC[C@H](N)C(=O)O; Orn = NCCC[C@H](N)C(=O)O; Dab = NCC[C@H](N)C(=O)O; Dap = NC[C@H](N)C(=O)O; Sar = CNCC(=O)O

As to `CC(=O)N[C@H]1CSSC[C@@H](C(=O)N[C@H](CCN)C(=O)N[C@H]2CCNC(=O)[C@H]([C@@H](C)O)NC(=O)[C@H](CCN)NC(=O)[C@H](CCN)NC(=O)[C@H](CC(C)C)NC(=O)[C@@H](Cc3ccccc3)NC(=O)[C@H](CCN)NC2=O)NC(=O)[C@H](CCCN)NC(=O)[C@H](CC(N)=O)NC(=O)[C@H](Cc2ccc(O)cc2)NC(=O)[C@@H]2CSSC[C@H](NC(=O)[C@H](Cc3ccc(O)cc3)NC(=O)[C@H](CO)NC(=O)[C@H](Cc3c[nH]c4ccccc34)NC1=O)C(=O)N[C@@H](C(C)C)C(=O)N[C@H](CCN)C(=O)N[C@@H](CCCNC(=N)N)C(=O)N[C@@H](CC(C)C)C(=O)N2` [Ex. 211] (Ac-CWSYCV[dDab]RLCYN[Orn]C[dDab][Dab][Dab][dF]L[Dab][Dab]T; disulfide 1-14, 5-10; lactam 16-C), the “Klebsiella pneumoniae 968733 MIC” value in series [1] (setting [8]) came out at 8 µg/mL. In addition, the “Escherichia coli ATCC 25922 MIC” value in series [2] (Mueller-Hinton II broth) stood at 0.5 µg/mL. The “Acinetobacter baumannii DSM 30008 MIC” value in series [3] (Mueller-Hinton II broth) turned out to be 1 µg/mL. In series [4] (setting [8]), the “Acinetobacter baumannii 872842 MIC” value worked out at 2 µg/mL. Also, in series [5] (Mueller-Hinton II broth), the “Pseudomonas aeruginosa ATCC 27853 MIC” value worked out at 2 µg/mL. In series [6] (Mueller-Hinton II broth), the “Klebsiella pneumoniae SSI #3010 MIC” value came out at 1 µg/mL. For the same compound, the “Escherichia coli 926415 MIC” value in the series on Escherichia coli 926415 (setting [8]) stood at 2 µg/mL. Besides, the “Hemolysis at 100 μg/mL” value in series [7] (20% hRBC, 1 h at 37° C.) is 2%.
As for `CC(C)C[C@@H]1NC(=O)[C@@H](CC(C)C)NC(=O)[C@H](CCN)NC(=O)[C@@H](NC(=O)[C@H](CCN)NC(=O)CN(C)C(=O)[C@@H]2CSSC[C@H](N)C(=O)N[C@@H](Cc3c[nH]c4ccccc34)C(=O)N[C@@H](CCN)C(=O)N[C@@H](C(C)C)C(=O)N[C@H]3CSSC[C@H](NC(=O)[C@H](CC(C)C)NC(=O)[C@@H]4CCCN4C(=O)[C@H]4CCCN4C(=O)[C@H](CO)NC3=O)C(=O)N[C@@H](Cc3ccc(O)cc3)C(=O)N[C@@H](CCN)C(=O)N[C@@H](CCCN)C(=O)N2)CCNC(=O)[C@H]([C@@H](C)O)NC(=O)[C@H](CCN)NC(=O)[C@H](CCN)NC1=O` [Ex. 212] (H-CW[Dab]VCS[dP]PLCY[Dab][Orn]C[Sar][Dab][Dab][Dab][dL]L[Dab][Dab]T; disulfide 1-14, 5-10; lactam 17-C), the “Klebsiella pneumoniae 968733 MIC” value in series [1] (setting [8]) was 4 µg/mL. Besides, the “Escherichia coli ATCC 25922 MIC” value in series [2] (Mueller-Hinton II broth) was found to be 0.5 µg/mL. The “Acinetobacter baumannii DSM 30008 MIC” value in series [3] (Mueller-Hinton II broth) was determined as 1 µg/mL. Besides, the “Acinetobacter baumannii 872842 MIC” value in series [4] (setting [8]) worked out at 1 µg/mL. Also, the “Pseudomonas aeruginosa ATCC 27853 MIC” value in series [5] (Mueller-Hinton II broth) came to 0.5 µg/mL. For the same compound, the “Klebsiella pneumoniae SSI #3010 MIC” value in series [6] (Mueller-Hinton II broth) stood at 2 µg/mL. Besides, the “Escherichia coli 926415 MIC” value with Escherichia coli 926415 (setting [8]) worked out at 1 µg/mL. In addition, in series [7] (20% hRBC, 1 h at 37° C.), the “Hemolysis at 100 μg/mL” value is 1%.
In the case of `CC(C)C[C@@H]1NC(=O)[C@@H](CC(C)C)NC(=O)[C@H](CCN)NC(=O)[C@@H](NC(=O)[C@H](CCN)NC(=O)CN(C)C(=O)[C@@H]2CSSC[C@H](N)C(=O)N[C@@H](Cc3c[nH]c4ccccc34)C(=O)N[C@@H](CCN)C(=O)N[C@@H](C(C)C)C(=O)N[C@H]3CSSC[C@H](NC(=O)[C@H](CC(C)C)NC(=O)[C@@H]4CCCN4C(=O)[C@H]4CCCN4C(=O)[C@H](Cc4ccc(O)cc4)NC3=O)C(=O)N[C@@H](Cc3ccc(O)cc3)C(=O)N[C@@H](CCN)C(=O)N[C@@H](CCCN)C(=O)N2)CCNC(=O)[C@H]([C@@H](C)O)NC(=O)[C@H](CCN)NC(=O)[C@H](CCN)NC1=O` [Ex. 213] (H-CW[Dab]VCY[dP]PLCY[Dab][Orn]C[Sar][Dab][Dab][Dab][dL]L[Dab][Dab]T; disulfide 1-14, 5-10; lactam 17-C), the “Klebsiella pneumoniae 968733 MIC” value in series [1] (setting [8]) stood at 1 µg/mL. For the same compound, in series [2] (Mueller-Hinton II broth), the “Escherichia coli ATCC 25922 MIC” value is 0.125 µg/mL. For the same compound, in series [3] (Mueller-Hinton II broth), the “Acinetobacter baumannii DSM 30008 MIC” value came out at 0.5 µg/mL. In addition, in series [4] (setting [8]), the “Acinetobacter baumannii 872842 MIC” value was 0.5 µg/mL. The “Pseudomonas aeruginosa ATCC 27853 MIC” value in series [5] (Mueller-Hinton II broth) turned out to be 0.5 µg/mL. For the same compound, the “Klebsiella pneumoniae SSI #3010 MIC” value in series [6] (Mueller-Hinton II broth) was determined as 0.5 µg/mL. Moreover, in the series on Escherichia coli 926415 (setting [8]), the “Escherichia coli 926415 MIC” value came to 0.5 µg/mL. The “Hemolysis at 100 μg/mL” value in series [7] (20% hRBC, 1 h at 37° C.) is 3%.
As for `CCCC[C@@H]1NC(=O)[C@@H]2CCCN2C(=O)[C@H]2CCCN2C(=O)[C@H](CO)NC(=O)[C@H](CC(N)=O)NC(=O)[C@H](C(C)(C)C)NC(=O)[C@H](CCN)NC(=O)[C@H](Cc2c[nH]c3ccccc23)NC(=O)[C@@H](NC)CSSC[C@@H](C(=O)N(C)CC(=O)N[C@H](CCN)C(=O)N[C@@H](CCN)C(=O)N[C@H]2CCNC(=O)[C@H]([C@@H](C)O)NC(=O)[C@H](CCN)NC(=O)[C@H](CCN)NC(=O)[C@H](CC(C)C)NC(=O)[C@@H](CC(C)C)NC(=O)[C@H](CCN)NC2=O)NC(=O)[C@H](CCCN)NC(=O)[C@H](CCN)NC(=O)[C@H](Cc2ccc(O)cc2)NC(=O)[C@H](CN)NC1=O` [Ex. 214] (H-[NMeC]W[Dab][Tle]NS[dP]P[Nle][Dap]Y[Dab][Orn]C[Sar][dDab][Dab][Dab][Dab][dL]L[Dab][Dab]T; disulfide 1-14; lactam 18-C), the “Klebsiella pneumoniae 968733 MIC” value in series [1] (968733) came out at 8 µg/mL. For the same compound, the “Escherichia coli ATCC 25922 MIC” value in series [2] (ATCC 25922) worked out at 0.5 µg/mL. In addition, the “Acinetobacter baumannii DSM 30008 MIC” value in series [3] (DSM 30008) turned out to be 2 µg/mL. Besides, the “Acinetobacter baumannii 872842 MIC” value in series [4] (872842) is 0.5 µg/mL. The “Pseudomonas aeruginosa ATCC 27853 MIC” value in series [5] (ATCC 27853) turned out to be 0.5 µg/mL. Further, the “Klebsiella pneumoniae SSI #3010 MIC” value in series [6] (SSI #3010) was determined as 1 µg/mL. Also, the “Escherichia coli 926415 MIC” value with Escherichia coli 926415 (926415) came to 2 µg/mL. Also, the “Hemolysis at 100 μg/mL” value in series [7] (red cells of human, 1 h) is listed as 1%.
With `CCCC[C@@H]1NC(=O)[C@@H]2CCCN2C(=O)[C@H]2CCCN2C(=O)[C@H](CO)NC(=O)[C@H](C)NC(=O)[C@H](C(C)(C)C)NC(=O)[C@H](CCN)NC(=O)[C@H](Cc2c[nH]c3ccccc23)NC(=O)[C@@H](N)CSSC[C@@H](C(=O)N[C@H](CCN)C(=O)N[C@H]2CCN(C)C(=O)[C@H]([C@@H](C)O)NC(=O)[C@H](CCN)NC(=O)[C@H](CCN)NC(=O)[C@H](CC(C)C)NC(=O)[C@@H](Cc3ccccc3)NC(=O)[C@H](CCN)NC2=O)NC(=O)[C@H](CCCN)NC(=O)[C@H](CCN)NC(=O)[C@H](Cc2ccc(O)cc2)NC(=O)[C@H](CO)NC1=O` [Ex. 215], the “Klebsiella pneumoniae 968733 MIC” value in series [1] (968733) worked out at 0.5 µg/mL. For the same compound, the “Escherichia coli ATCC 25922 MIC” value in series [2] (ATCC 25922) was determined as 0.25 µg/mL. Further, in series [3] (DSM 30008), the “Acinetobacter baumannii DSM 30008 MIC” value came to 0.25 µg/mL. For the same compound, the “Acinetobacter baumannii 872842 MIC” value in series [4] (872842) was 1 µg/mL. Besides, in series [5] (ATCC 27853), the “Pseudomonas aeruginosa ATCC 27853 MIC” value amounted to 1 µg/mL. In addition, in series [6] (SSI #3010), the “Klebsiella pneumoniae SSI #3010 MIC” value was found to be 0.25 µg/mL. In the series on Escherichia coli 926415 (926415), the “Escherichia coli 926415 MIC” value amounted to 0.25 µg/mL. Also, in series [7] (red cells of human, 1 h), the “Hemolysis at 100 μg/mL” value is reported as below 1%.
On to `CCCC[C@@H]1NC(=O)[C@@H]2CCCN2C(=O)[C@H]2CCCN2C(=O)[C@H](CO)NC(=O)[C@H](C)NC(=O)[C@H](C(C)(C)C)NC(=O)[C@H](CCN)NC(=O)[C@H](Cc2c[nH]c3ccccc23)NC(=O)[C@@H](N)CSSC[C@@H](C(=O)N[C@H](CCN)C(=O)N[C@H]2CCN(C)C(=O)[C@H](C(C)C)NC(=O)[C@H](CCN)NC(=O)[C@H](CCN)NC(=O)[C@H](CC(C)C)NC(=O)[C@@H](Cc3ccccc3)NC(=O)[C@H](CCN)NC2=O)NC(=O)[C@H](CCCN)NC(=O)[C@H](CCN)NC(=O)[C@H](Cc2ccc(O)cc2)NC(=O)[C@H](CO)NC1=O` [Ex. 216], for which the “Klebsiella pneumoniae 968733 MIC” value in series [1] (968733) came out at 0.25 µg/mL. In addition, in series [2] (ATCC 25922), the “Escherichia coli ATCC 25922 MIC” value came to 0.125 µg/mL. The “Acinetobacter baumannii DSM 30008 MIC” value in series [3] (DSM 30008) came to 0.125 µg/mL. Moreover, the “Acinetobacter baumannii 872842 MIC” value in series [4] (872842) was 0.5 µg/mL. In addition, the “Pseudomonas aeruginosa ATCC 27853 MIC” value in series [5] (ATCC 27853) amounted to 0.5 µg/mL. Also, the “Klebsiella pneumoniae SSI #3010 MIC” value in series [6] (SSI #3010) worked out at 0.125 µg/mL. In the series on Escherichia coli 926415 (926415), the “Escherichia coli 926415 MIC” value was 0.0625 µg/mL. In series [7] (red cells of human, 1 h), the “Hemolysis at 100 μg/mL” value was 1%.
